Source: PubChem BioAssay AID179 (DTP/NCI, 2004)
Several values for one entry are separate records, joined by “and”; a condition that tells them apart may be missing. Equal entries are not always repeated. Activity calls are given as the source filed them.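 The calls were made as follows: active = compounds giving half or more protection of infected cells from virus-caused growth loss, again on retest; inactive = the rest.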 Where a SMILES comes first, the peptide text is derived from it. The star is where a group is joined. Boc = CC(C)(C)OC(=O)*

Test system: CEM cells HIV-1 protection, formazan growth assay
Assay: NCI AIDS Antiviral Assay
Details: for IC50: measured here: growth of uninfected CEM cells
How it was run: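 Protection of CEM cells against HIV-1 measured as cell growth via soluble formazan read-out, with five concentrations tested on both infected and uninfected cells; failure to protect may reflect toxicity.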

| Compound | EC50 | IC50 | outcome |
| --- | --- | --- | --- |
| CC(C)=CCN1Cc2c(F)ccc3[nH]c(=S)n(c23)CC1C (centres undefined) | 0.0398 µM | 70.8 µM | – |
| CCCCCC=C(c1cc(Cl)c(OC)c(C(=O)NC)c1)c1cc(Cl)c(OC)c(C(=O)NC)c1 | > 38 µM | 20.4 µM | – |
| CC(c1ccc2c(c1)CCC1C2CC2OC23CC=CC(=O)[C@]13C)C1C[C@]2(C)O[C@]2(C)[C@H](O)O1 (some centres undefined) | > 200 µM | 45.7 µM | – |
| CCC1(O)C(=O)OCc2c1cc1n(c2=O)Cc2cc3cc4c(cc3nc2-1)OCO4 (centres undefined) | > 0.1 µM | 0.00562 µM | – |
| COC(OC)C(=O)[C@H]1[C@H](C(=O)OCC2OC(n3cc(C)c(=O)[nH]c3=O)CC2N=[N+]=[N-])C[C@H]2[C@@H]3CCC4=CC(=O)C=C[C@]4(C)[C@H]3[C@@H](O)C[C@@]21C (some centres undefined) | 0.0331 µM | 13.2 µM | – |
| COC(=O)NN=C(c1ccc(Cl)cc1)c1ccc(Cl)cc1 | 35.5 µM | 174 µM | – |
| CCOC(=O)C(O)(NC(=O)c1ccc(F)cc1)C(F)(F)F (centres undefined) | > 200 µM | > 200 µM | – |
| O=C(N/N=C\C(F)(F)F)c1ccncc1 | > 200 µM | 3.55 µM | – |
| CN(C)CCCC12OC(c3ccccc31)C(O)c1ccccc12 (centres undefined) | > 200 µM | > 200 µM | – |
| CC[N+]1(C)CCC(O)(/C=C/c2ccc(OC)cc2)C(C(=O)/C=C/c2ccc(OC)cc2)C1 (centres undefined) | > 200 µM | 1.12 µM | – |
| CC(CN1NC12CCCC2)N1NC12CCCC2 (centres undefined) | > 200 µM | > 200 µM | – |
| CC1=CC(=O)C2[C@@H](C1)C1(C)C(=O)C34OC(=O)C[C@@](C)([C@H]1C(=O)[C@@H]2C)[C@]3(C)CC[C@]12C[C@@H](C)C[C@H](CN41)O2 (some centres undefined) | – | – | inactive |
| CS(=O)(=O)CCC(N)P(=O)(O)O (centres undefined) | > 200 µM | > 200 µM | – |
| CCSC1=N/C(=C\c2ccccc2O)C(Nc2ccc(C)cc2)=N1 | > 100 µM | > 100 µM | – |
| CC(C)=CCN1CCCn2c(=S)[nH]c3cccc(c32)C1 | > 200 µM | > 200 µM | – |
| CCC1C(C)C=CN1c1nc(N)nc(NS(=O)(=O)c2cc(C)c(Cl)cc2S)n1 (centres undefined) | 129 µM | > 200 µM | – |
| c1ccc2c(c1)Nc1ccccc1O2 | > 97.7 µM | 23.4 µM | – |
| COC(=O)CN1C(=O)C2(C(=O)OC)OC1(c1ccc([N+](=O)[O-])cc1)C1C(=O)N(c3ccccc3)C(=O)C12 (centres undefined) | > 200 µM | > 200 µM | – |
| O=C(NCC(O)COc1ccccc1)c1ccccc1O (centres undefined) | > 200 µM | 115 µM | – |
| CC(=O)/C(=C/n1c(=S)[nH]c2ccc([N+](=O)[O-])cc21)C(=O)Nc1ccc([N+](=O)[O-])cc1 | > 200 µM | 33.1 µM | – |
| N#Cc1nn(C(N)=O)c(N)c1C#N | > 200 µM | > 200 µM | – |
| COc1ccc(-n2c(=O)n(C)c(=O)n2-c2ccc(OC)cc2)cc1 | > 200 µM | > 200 µM | – |
| CCCC(=O)O[C@@H]1C(C)C2(O)C3C=C(C)C(=O)[C@@]3(O)CC(CO)=C[C@H]2C2C(C)(C)C21OC(=O)CCC (some centres undefined) | – | – | inactive |
| O=C(/C=C/c1ccccc1Cl)c1ccccc1 | > 21.4 µM | 14.5 µM | – |
| O=C1CCCC[C@H]1C(O)CC1CC(=O)N(c2ccccc2)C(=O)C1 (some centres undefined) | > 200 µM | > 200 µM | – |
| Cc1nc2ccccc2c(C(=O)NO)[n+]1[O-] | > 200 µM | > 200 µM | – |
| CC(=N/NC(=S)N(C)C)/C(=N\NC(=S)N(C)C)c1ccccc1 | > 200 µM | 3.63 µM | – |

| Compound | EC50 | IC50 | outcome |
| --- | --- | --- | --- |
| CCCCCCCCCCCCC(C(=O)O)C(=O)O | > 251 µM | > 251 µM | – |
| CCOC(=O)c1cc2sc(NC(=O)c3ccccc3)nc2o1 | – | – | inactive |
| COC(=O)[C@@H]1C[C@@H]2c3ccccc3N(S(=O)(=O)c3ccccc3)[C@@H]2N1C(=O)OC | > 200 µM | > 200 µM | – |
| CCOc1ccc(NC(=O)C2=C(C)NC(C)=C(C(=O)Nc3ccc(OCC)cc3)C2c2ccc(O)c(OC)c2)cc1 | > 17 µM | > 17 µM | – |
| CC[C@H]1OC(=O)[C@H](C)[C@@H](OC2CC(C)(OC)C(O)C(C)O2)[C@H](C)[C@@H](OC2OC(C)CC(N(C)C)C2OC(=O)CCC2CCCC2)[C@](C)(O)C[C@@H](C)C(=O)[C@H](C)[C@@H](O)[C@]1(C)O (some centres undefined) | > 100 µM | 40.7 µM | – |
| CCOC(=O)Nc1nc2c([N+](=O)[O-])c(Br)n(C)c2s1 | – | – | inactive |
| COc1cc2c(cc1OC)C1Cc3ccccc3CN1CCC2 (centres undefined) | > 200 µM | 141 µM | – |
| COc1ccc(Cc2nc3ccccc3[nH]2)cc1OC | > 200 µM | 89.1 µM | – |
| COc1ccc(/C=C(\C#N)c2cccnc2)cc1OC | > 25.1 µM | 23.4 µM | – |
| O=S(=O)(O)OCC1OC2OC3C(COS(=O)(=O)O)OC(OC4C(COS(=O)(=O)O)OC(OC5C(COS(=O)(=O)O)OC(OC6C(COS(=O)(=O)O)OC(OC7C(COS(=O)(=O)O)OC(OC8C(COS(=O)(=O)O)OC(OC1C(OS(=O)(=O)O)C2OS(=O)(=O)O)C(OS(=O)(=O)O)C8OS(=O)(=O)O)C(OS(=O)(=O)O)C7OS(=O)(=O)O)C(OS(=O)(=O)O)C6OS(=O)(=O)O)C(OS(=O)(=O)O)C5OS(=O)(=O)O)C(OS(=O)(=O)O)C4OS(=O)(=O)O)C(OS(=O)(=O)O)C3OS(=O)(=O)O (centres undefined) | 21.4 µM and > 50.1 µM | 75.9 µM and > 50.1 µM | – |
| CC(C)C1COC(c2ccc3ccccc3c2-c2c(O[Si](C)(C)C(C)(C)C)ccc3ccccc23)=N1 (centres undefined) | > 7.59 µM | > 7.59 µM | – |
| c1cnc2c(c1)n[n+]1[n-]c3ccccc3n21 | > 12.3 µM | > 12.3 µM | – |
| O=S(=O)(Nc1nc2ccccc2nc1Nc1ccc2ccccc2c1)c1ccccc1 | > 200 µM | 10.5 µM | – |
| Cn1c(=O)oc2cc(C(=S)N3CCC(Cc4ccccc4)CC3)ccc21 | > 200 µM | > 200 µM | – |
| Cc1c(N=Nc2ccc(Br)cc2)c(=O)n(-c2ccccc2)c(=S)n1-c1nc2ccccc2s1 | > 83.2 µM | 19.5 µM | – |
| CSc1ncnc2c1ncn2C1CC(Oc2ccc(C)cc2)C(COc2ccc(C)cc2)O1 (centres undefined) | > 200 µM | 30.9 µM | – |
| CC(=O)O[C@H]1CC[C@H]2[C@@H]3CCC4=CC(=O)C=C[C@]4(O)[C@H]3CC[C@]12C | > 200 µM | 10.2 µM | – |
| CCC[CH2][Sn]1([CH2]CCC)[N](S(=O)(=O)c2ccc(C)cc2)c2ccccc2[N]1S(=O)(=O)c1ccc(C)cc1 | > 2 µM | 0.309 µM | – |
| O=c1[nH][nH]c(=O)c2c1[nH]c(=S)n2-c1ccccc1 | > 200 µM | > 200 µM | – |
| Cc1nn(C)c(=O)[nH]c1=O | > 1780 µM | > 1780 µM | – |
| Cc1cccc(C(C)(C)C)c1NC(=O)C(=O)C(C(=O)/C=C\c1ccccc1)C1OC(=O)c2ccccc21 (centres undefined) | > 214 µM | 58.9 µM | – |
| Cc1cc(S(=O)(=O)Nc2nnc3ccccn23)c(S)cc1Cl | 102 µM | 380 µM | – |
| CC1(O)CCC2(C#N)CCC1C2O (centres undefined) | > 1380 µM | > 1380 µM | – |
| S=c1c2ccccc2c(=S)n(-c2ccccc2)n1-c1ccccc1 | > 200 µM | > 200 µM | – |
| O=C(CC(C(=O)c1ccco1)c1ccsc1)c1ccco1 (centres undefined) | > 200 µM | 107 µM | – |
| COC1(C)C(=O)N2C1N(C(=O)OCc1ccccc1)CC2(C)C (centres undefined) | > 251 µM | > 251 µM | – |
| COc1ccccc1NC(=S)NNC(=O)c1cc(-c2ccccc2)nc2ccccc12 | > 200 µM | 11.5 µM | – |

| Compound | EC50 | IC50 | outcome |
| --- | --- | --- | --- |
| O=C(NNC(=O)c1ccccc1O)c1ccc(O)cc1 | > 200 µM | 14.5 µM | – |
| C[N+](C)([O-])CCCNc1c2ccccc2nc2cccc([N+](=O)[O-])c12 | > 20 µM | 0.186 µM | – |
| O=C1C=Cc2c(-c3ccccc3)oc3cccc1c23 | – | – | inactive |
| c1ccc([CH2][Sn]([CH2]c2ccccc2)([O]c2cccc3cccnc23)[O]c2cccc3cccnc23)cc1 | – | – | inactive |
| Cc1ccc(S(=O)(=O)N/N=C2\C=CC3(CC2)C(=O)N(I)c2ccccc23)cc1 (centres undefined) | – | – | inactive |
| CC(C)(C)[C@H]1CCC2(OCCO2)[C@](O)(CCCO)C1 | > 200 µM | > 200 µM | – |
| S=C(N/N=C/c1cccc2ccccc12)Nc1c(Cl)cccc1Cl | > 200 µM | 102 µM | – |
| C=C1CC[C@]2(C)C3CC[C@]4(C)C(C(C)CCC(=O)OC)CCC4[C@@H]3CC[C@@H]2C1 (some centres undefined) | > 87.1 µM | > 87.1 µM | – |
| O=C(Nc1ccc(C(=O)Nc2ccc(C3=NCCCN3)cc2)cc1)Nc1ccc(C2=NCCCN2)cc1 | > 200 µM | 17 µM | – |
| N#Cc1nc(C#N)n(S(=O)(=O)c2ccccc2)c1NS(=O)(=O)c1ccccc1 | > 200 µM | > 200 µM | – |
| COC(=O)c1cc(C(=Cc2c(F)c(F)c(F)c(F)c2F)c2cc(Cl)c(OC)c(C(=O)OC)c2)cc(Cl)c1OC | > 17.4 µM | > 17.4 µM | – |
| Cc1ccc(S(=O)OC2c3ccccc3Cc3ccccc32)cc1 (centres undefined) | – | – | inactive |
| O=C1C=CC2(C=C1)CCC(=O)O2 | 2.95 µM | 158 µM | – |
| O=C1N[C@H]2CCCC[C@@H]2C(=O)N1OS(=O)(=O)c1ccccc1 | > 200 µM | > 200 µM | – |
| CCCCOC(=O)C1CC2OC2CC1C(=O)OCCOCCOC(=O)C1CC2OC2CC1C(=O)OCCCC (centres undefined) | > 200 µM | 51.3 µM | – |
| COc1ccc2c(c1)[n+]([O-])c(-c1ccc([N+](=O)[O-])cc1)c(N)[n+]2[O-] | – | – | inactive |
| Cc1ccc2c(c1)C(=O)c1[nH]c3ccc(F)cc3c1CO2 | > 200 µM | > 200 µM | – |
| N#Cc1nc(-c2ccco2)oc1N | > 200 µM | > 200 µM | – |
| CN(C)C(CN)CC1=C(CC(CN)N(C)C)CCC1 (centres undefined) | – | – | inactive |
| O=C(O)Cn1ccc(=O)c2ccc([N+](=O)[O-])cc21 | > 200 µM | > 200 µM | – |
| COc1cc(/C=N/NC2=NCCN2)ccc1O | > 200 µM | > 200 µM | – |
| CCc1c(Cc2cc(C)cc(C)c2)n(COCCC[Se]c2ccccc2)c(=O)[nH]c1=O | 0.407 µM | 12 µM | – |
| Nc1nc(=O)n(C2CCC(CO)O2)cc1F (centres undefined) | 0.151 µM | 32.4 µM | – |
| Cc1cn(C2CC(N=[N+]=[N-])C(COC(=O)C3CNC(=O)N3)O2)c(=O)[nH]c1=O (centres undefined) | – | 93.3 µM | active |
| O=C(O)CN(c1ccccc1)S(=O)(=O)c1ccc(NC(=O)c2ccccc2)cc1 | – | – | inactive |
| CCOCC(NC(=O)C(CC(C)C)NC(=O)OC(C)(C)C)C(N)=O (stereo not drawn) (Boc-Leu-Ser(Et)-NH2; configuration not given here) | > 200 µM | > 200 µM | – |
